Reference: patent publication US20160193219A1, “SUBSTITUTED 2,3-DIHYDROIMIDAZO[1,2-C]QUINAZOLINE SALTS” (priority 2011, published 2016)
Where a name gives a salt, the structure may show the parent alone. Read-outs that look alike come from different tables or passages of the source.

What was measured:
[1] = 16 h
[2] = Stability as solid (stored at 90° C. for 1 week, HPLC); assay type: physicochemical; details: for therm. stab. solid: 1 w @ 90° C.; for sum of impurities: HPLC area
[3] = for pH: Saturated solution in water; for XRPD (solid residue): solid retained on filter after 20 h in water at 25° C.
[4] = Crystallinity by XRPD; assay type: physicochemical
[5] = system: LNCaP; assay: Proliferation assay (Cell Titer-Glo, 72 h), LNCaP; details: Prostate, dihydrochloride
[6] = system: MDA-MB-468; assay: Proliferation assay (Cell Titer-Glo, 72 h), MDA-MB-468; details: MDA-MB-468, Breast, dihydrochloride
[7] = system: HCT116; assay: Proliferation assay (Cell Titer-Glo, 72 h), HCT116; details: HCT116, Colon, dihydrochloride
[8] = physchem; details: 25 °C, water, thermodynamic from solid
[9] = system: HT29; assay: Proliferation assay (Cell Titer-Glo, 72 h), HT29; details: HT29, Colon, dihydrochloride
[10] = system: 16 tumor cell lines covering 6 cancer indications; assay: Proliferation assays, panel of 16 tumor cell lines; assay type: cell-based; details: all the tumor cell lines tested (panel of 16)
Protocol: Cell proliferation is determined using the Cell Titer-Glo luminescent cell viability kit from Promega (Cat. #G7573) after 72 hours exposure to the drugs. Briefly, cells were plated at 500-1000 cells/well of 384-well plates in 25 μL growth medium. For each cell line assayed, cells were plated into a separate plate for determination of luminescence at the t=0 hours and t=72 hour time points. […] Dose plates for t=72 hour time points were treated with compounds diluted into growth medium in a final volume of 30 μL. Cells were then incubated for 72 hours at 37° C. Luminescence values for the t=72 hour samples were determined by adding 30 μL of Promega CellTiter-Glo solution, placing the cells on a shaker for 10 minutes at room temperature, and then reading the luminescence using a Victor luminometer. For data processing, t=0 values are subtracted from those determined for the t=72 hour time points, for both the treated and untreated samples. Percent differences in luminescence between drug treated and controls are used to determine percent inhibition of growth.

[11] = system: Colo205; assay: Proliferation assay (Cell Titer-Glo, 72 h), Colo205; details: Colo205, Colon, dihydrochloride
[12] = Additional solubility data in different solvents (20 h at 25° C.); assay type: physicochemical
Protocol: The dihydrochloride of formula (II) was stirred in 20 mL of different solvents for 20 h at 25° C. In all hydrous solvents approx. 2 g of the dihydrochloride of formula (II) have been solved completely.

[13] = system: T47D; assay: Proliferation assay (Cell Titer-Glo, 72 h), T47D; details: Breast, dihydrochloride
[14] = system: A549; assay: Proliferation assay (Cell Titer-Glo, 72 h), A549; details: A549, Lung, dihydrochloride
[15] = system: BT20; assay: Proliferation assay (Cell Titer-Glo, 72 h), BT20; details: BT20, Breast, dihydrochloride
[16] = system: 786O; assay: Proliferation assay (Cell Titer-Glo, 72 h), 786O; details: Kidney, dihydrochloride
[17] = system: BT474; assay: Proliferation assay (Cell Titer-Glo, 72 h), BT474; details: BT474, Breast, dihydrochloride
[18] = system: PC3; assay: Proliferation assay (Cell Titer-Glo, 72 h), PC3; details: PC3, Prostate, dihydrochloride
[19] = system: H460; assay: Proliferation assay (Cell Titer-Glo, 72 h), H460; details: H460, Lung, dihydrochloride
[20] = system: MCF7; assay: Proliferation assay (Cell Titer-Glo, 72 h), MCF7; details: MCF7, Breast, dihydrochloride
[21] = system: SK-Br-3; assay: Proliferation assay (Cell Titer-Glo, 72 h), SK-Br-3; details: SK-Br-3, Breast, dihydrochloride
[22] = solid stored at 90° C. for 1 week
[23] = listed as Hydrochloric acid (Ex. 1), dihydrochloride

For COc1c(OCCCN2CCOCC2)ccc2c1N=C(NC(=O)c1cnc(N)nc1)N1CCN=C21.O=C(O)/C=C\C(=O)O.O=C(O)/C=C\C(=O)O [Comparative Example 5], the aqu. solubility [1] was >8.1 mg/100 ml, the therm. stab. solid [2] was “+” and the “HPLC, area % DS” value [2, 22] was ~96.9% (sum of. For the same compound, the “HPLC, wt % DS” value [2, 22] was 59.4 wt %, the sum of impurities [2, 22] was “impurities ~3.1%)” and the pH [3] was 3.1. For the same compound, the “XRPD (solid residue)” value [3] was “crystalline” and the crystallinity [4] was “+”.
For COc1c(OCCCN2CCOCC2)ccc2c1N=C(NC(=O)c1cnc(N)nc1)N1CCN=C21.CS(=O)(=O)O.CS(=O)(=O)O [Comparative Example 6], the aqu. solubility [1] was >8.3 mg/100 ml, the therm. stab. solid [2] was “+” and the “HPLC, area % DS” value [2, 22] was ~96.7% (sum of. For the same compound, the “HPLC, wt % DS” value [2, 22] was 59.5 wt %, the sum of impurities [2, 22] was “impurities ~3.3%)” and the pH [3] was ~2.3.
For COc1c(OCCCN2CCOCC2)ccc2c1N=C(NC(=O)c1cnc(N)nc1)N1CCN=C21 [dihydrochloride salt of formula (II), 2-amino-N-[7-methoxy-8-(3-morpholin-4-ylpropoxy)-2,3-dihydroimidazo[1,2-c]quinazolin-5-yl]pyrimidine-5-carboxamide dihydrochloride], the IC50 [5] was 67 nM, the IC50 [6] was 256 nM and the IC50 [7] was 72 nM. The solubility thermodynamic at 16 h [8] was > 88 µg/mL, the IC50 [9] was 10 nM and the “difference in the IC50 values (free base vs dihydrochloride salt)” value [10] was “less than 3 fold”. The IC50 [11] was 110 nM, the therm. stab. solid [2, 23] was “+” and the “HPLC, area % DS” value [2, 22] was ~98.2%; sum of. The “HPLC, wt % DS” value [2, 22] was ~65.6 wt %, the “Stability as solid (Comments)” value [2, 22] was “Stable” and the sum of impurities [2, 22] was “impurities ~1.8%”. The Solubility ([12]; 0.1M HCl, 20 h at 25° C.) was “≧8800 mg/100 ml soluble”, the Solubility ([12]; Acetone, 20 h at 25° C.) was 0.3 mg/100 ml practically insoluble and the Solubility ([12]; Acetonitrile, 20 h at 25° C.) was 1.1 mg/100 ml practically insoluble. The Solubility ([12]; Buffer pH 4.5, 20 h at 25° C.) was “≧8900 mg/100 ml soluble”, the Solubility ([12]; Buffer pH 7.0, 20 h at 25° C.) was “≧8700 mg/100 ml soluble” and the Solubility ([12]; Ethanol, 20 h at 25° C.) was 24.8 mg/100 ml very slightly soluble. The Solubility ([12]; PEG400, 20 h at 25° C.) was 301 mg/100 ml slightly soluble, the Solubility ([12]; Water, 20 h at 25° C.) was “≧9400 mg/100 ml soluble” and the IC50 [13] was 2 nM. The IC50 [14] was 44 nM, the IC50 [15] was 2 nM and the IC50 [16] was 247 nM. It also gave an IC50 [17] of 10 nM, an IC50 [18] of 90 nM and a pH [3] of ~2.4. For the same compound, the “XRPD (solid residue)” value [3] was “crystalline”, the Solubility ([3]; water, 25° C., 20 h, HPLC) was >8.8 mg/100 ml and the crystallinity [4, 23] was “++”. The IC50 [19] was 67 nM, the IC50 [20] was 9 nM and the IC50 [21] was 1 nM.
